Measured values from patent publication US6737383B1, “Herbicidal oxadiazolidines” (priority 1999, dated 2004).

What was measured:
pigweed = experiment: Test B pre/postemergence pigweed; type: in vivo, Amaranthus retroflexus
How it was run: (§1)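 Response is a visual 0-to-10 score relative to untreated plants, where 0 means no effect and 10 means complete control, taken twelve to sixteen days after application. Treatments went onto soil at planting and onto foliage of 1- to 4-leaf plants, using a surfactant-containing non-phytotoxic solvent.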

morningglory = experiment: Test B pre/postemergence morningglory; type: in vivo, Ipomoea hederacea
How it was run: as §1

surinam grass = experiment: Test B pre/postemergence surinam grass; type: in vivo, Brachiaria decumbens
How it was run: as §1

soybean = experiment: Test B pre/postemergence soybean; type: in vivo, Glycine max
How it was run: as §1

corn = experiment: Test B pre/postemergence corn; type: in vivo, Zea mays
How it was run: as §1

rape = experiment: Test B pre/postemergence rape; type: in vivo, Brassica napus
How it was run: as §1

wild oat = experiment: Test B pre/postemergence wild oat; type: in vivo, Avena fatua
How it was run: as §1

sugar beet = experiment: Test B pre/postemergence sugar beet; type: in vivo, Beta vulgaris
How it was run: as §1

purple nutsedge = experiment: Test B pre/postemergence purple nutsedge; type: in vivo, Cyperus rotundus
How it was run: as §1

crabgrass = experiment: Test B pre/postemergence crabgrass; type: in vivo, Digitaria sanguinalis
How it was run: as §1

smallflower flatsedge = experiment: Test B flood test smallflower flatsedge; type: in vivo, Cyperus difformis
How it was run: (§2)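 Plants were grown to the 2-leaf stage before treatment with test chemical, then held in a greenhouse for twelve to sixteen days. Injury was visually rated against untreated controls on a 0–10 scale, where 0 is no effect and 10 is complete control.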

cocklebur = experiment: Test B pre/postemergence cocklebur; type: in vivo, Xanthium strumarium
How it was run: as §1

velvetleaf = experiment: Test B pre/postemergence velvetleaf; type: in vivo, Abutilon theophrasti
How it was run: as §1

giant foxtail = experiment: Test B pre/postemergence giant foxtail; type: in vivo, Setaria faberii
How it was run: as §1

blackgrass = experiment: Test B pre/postemergence blackgrass; type: in vivo, Alopecurus myosuroides
How it was run: as §1

bamyardgrass = experiment: Test B flood test barnyardgrass; type: in vivo, Echinochloa crus-galli
How it was run: as §2

[1] = Postemergence, Rate 31 g/ha, visual rating, scale 0 to 10 (0 no effect, 10 complete control)
[2] = Preemergence, Rate 31 g/ha, visual rating, scale 0 to 10 (0 no effect, 10 complete control)
[3] = Preemergence, Rate 62 g/ha, scale of 0 to 10 where 0 is no effect and 10 is complete control
[4] = Rate 16 g/ha, Postemergence, scale 0 to 10, 0 no effect, 10 complete control
[5] = Rate 16 g/ha, Preemergence, scale 0 to 10, 0 no effect, 10 complete control
[6] = Rate 62 g/ha, Postemergence, scale 0 to 10 (0 no effect, 10 complete control)
[7] = Rate 125 g/ha, Postemergence, scale of 0 to 10 where 0 is no effect and 10 is complete control
[8] = Rate 125 g/ha, Preemergence, scale of 0 to 10 where 0 is no effect and 10 is complete control
[9] = Rate 16 g/ha, head printed Pre-emergence (flood test species), scale 0 to 10, 0 no effect, 10 complete control
[10] = Rate 31 g/ha, Pre-emergence section (flood test species), scale 0 to 10
[11] = Rate 62 g/ha, headed Pre-emergence (flood test species), scale 0 to 10 (0 no effect, 10 complete control)
[12] = Rate 125 g/ha, Pre-emergence, flood test species, scale 0 to 10 where 0 is no effect and 10 is complete control
[13] = Rate 250 g/ha, Pre-emergence, flood-test species, scale 0 to 10, 0 is no effect, 10 is complete control
[14] = Rate 500 g/ha, Pre-emergence, flood test species, scale 0 to 10 (0 no effect, 10 complete control)

CCCCCn1c(=O)on(C(=O)N(c2ccc(F)cc2)C(C)C)c1=O [Compound 290]
Redroot pigweed plant response rating (pigweed; [1]): 0
Redroot pigweed plant response rating (pigweed; [2]): 0
Redroot pigweed plant response rating (pigweed; [3]): 2
Redroot pigweed plant response rating (pigweed; [4]): 0
Redroot pigweed plant response rating (pigweed; [5]): 0
Redroot pigweed plant response rating (pigweed; [6]): 0
Redroot pigweed plant response rating (pigweed; [7]): 0
Redroot pigweed plant response rating (pigweed; [8]): 7
Morningglory plant response rating (morningglory; [1]): 4
Morningglory plant response rating (morningglory; [2]): 0
Morningglory plant response rating (morningglory; [3]): 0
Morningglory plant response rating (morningglory; [4]): 3
Morningglory plant response rating (morningglory; [5]): 0
Morningglory plant response rating (morningglory; [6]): 4
Morningglory plant response rating (morningglory; [7]): 6
Morningglory plant response rating (morningglory; [8]): 0
B. signalgrass plant response rating (surinam grass; [1]): 0
B. signalgrass plant response rating (surinam grass; [2]): 0
B. signalgrass plant response rating (surinam grass; [3]): 0
B. signalgrass plant response rating (surinam grass; [4]): 0
B. signalgrass plant response rating (surinam grass; [5]): 0
B. signalgrass plant response rating (surinam grass; [6]): 0
B. signalgrass plant response rating (surinam grass; [7]): 0
B. signalgrass plant response rating (surinam grass; [8]): 0
Soybean plant response rating (soybean; [1]): 1
Soybean plant response rating (soybean; [2]): 0
Soybean plant response rating (soybean; [3]): 0
Soybean plant response rating (soybean; [4]): 1
Soybean plant response rating (soybean; [5]): 0
Soybean plant response rating (soybean; [6]): 2
Soybean plant response rating (soybean; [7]): 2
Soybean plant response rating (soybean; [8]): 0
Corn plant response rating (corn; [1]): 0
Corn plant response rating (corn; [2]): 0
Corn plant response rating (corn; [3]): 0
Corn plant response rating (corn; [4]): 0
Corn plant response rating (corn; [5]): 0
Corn plant response rating (corn; [6]): 0
Corn plant response rating (corn; [7]): 0
Corn plant response rating (corn; [8]): 0
Rape plant response rating (rape; [1]): 0
Rape plant response rating (rape; [2]): 0
Rape plant response rating (rape; [3]): 0
Rape plant response rating (rape; [4]): 0
Rape plant response rating (rape; [5]): 0
Rape plant response rating (rape; [6]): 0
Rape plant response rating (rape; [7]): 0
Rape plant response rating (rape; [8]): 0
Wild oats plant response rating (wild oat; [1]): 0
Wild oats plant response rating (wild oat; [2]): 0
Wild oats plant response rating (wild oat; [3]): 0
Wild oats plant response rating (wild oat; [4]): 0
Wild oats plant response rating (wild oat; [5]): 0
Wild oats plant response rating (wild oat; [6]): 0
Wild oats plant response rating (wild oat; [7]): 0
Sugarbeets plant response rating (sugar beet; [1]): 0
Sugarbeets plant response rating (sugar beet; [2]): 0
Sugarbeets plant response rating (sugar beet; [3]): 2
Sugarbeets plant response rating (sugar beet; [4]): 0
Sugarbeets plant response rating (sugar beet; [5]): 0
Sugarbeets plant response rating (sugar beet; [6]): 0
Sugarbeets plant response rating (sugar beet; [7]): 0
Sugarbeets plant response rating (sugar beet; [8]): 5
Nutsedge plant response rating (purple nutsedge; [1]): 0
Nutsedge plant response rating (purple nutsedge; [2]): 0
Nutsedge plant response rating (purple nutsedge; [3]): 0
Nutsedge plant response rating (purple nutsedge; [4]): 0
Nutsedge plant response rating (purple nutsedge; [5]): 0
Nutsedge plant response rating (purple nutsedge; [6]): 0
Nutsedge plant response rating (purple nutsedge; [7]): 0
Crabgrass plant response rating (crabgrass; [1]): 0
Crabgrass plant response rating (crabgrass; [2]): 0
Crabgrass plant response rating (crabgrass; [3]): 1
Crabgrass plant response rating (crabgrass; [4]): 0
Crabgrass plant response rating (crabgrass; [5]): 0
Crabgrass plant response rating (crabgrass; [6]): 0
Crabgrass plant response rating (crabgrass; [7]): 0
Crabgrass plant response rating (crabgrass; [8]): 3
S. Flatsedge plant response rating (smallflower flatsedge; [9]): 0
S. Flatsedge plant response rating (smallflower flatsedge; [10]): 0
S. Flatsedge plant response rating (smallflower flatsedge; [11]): 0
S. Flatsedge plant response rating (smallflower flatsedge; [12]): 2
S. Flatsedge plant response rating (smallflower flatsedge; [13]): 0
S. Flatsedge plant response rating (smallflower flatsedge; [14]): 0
Cocklebur plant response rating (cocklebur; [1]): 0
Cocklebur plant response rating (cocklebur; [2]): 0
Cocklebur plant response rating (cocklebur; [3]): 0
Cocklebur plant response rating (cocklebur; [4]): 0
Cocklebur plant response rating (cocklebur; [5]): 0
Cocklebur plant response rating (cocklebur; [6]): 0
Cocklebur plant response rating (cocklebur; [7]): 0
Cocklebur plant response rating (cocklebur; [8]): 0
Velvetleaf plant response rating (velvetleaf; [1]): 0
Velvetleaf plant response rating (velvetleaf; [2]): 0
Velvetleaf plant response rating (velvetleaf; [3]): 0
Velvetleaf plant response rating (velvetleaf; [4]): 0
Velvetleaf plant response rating (velvetleaf; [5]): 0
Velvetleaf plant response rating (velvetleaf; [6]): 0
Velvetleaf plant response rating (velvetleaf; [7]): 0
Velvetleaf plant response rating (velvetleaf; [8]): 0
Giant foxtail plant response rating (giant foxtail; [1]): 0
Giant foxtail plant response rating (giant foxtail; [2]): 2
Giant foxtail plant response rating (giant foxtail; [3]): 8
Giant foxtail plant response rating (giant foxtail; [4]): 0
Giant foxtail plant response rating (giant foxtail; [5]): 2
Giant foxtail plant response rating (giant foxtail; [6]): 0
Giant foxtail plant response rating (giant foxtail; [7]): 0
Giant foxtail plant response rating (giant foxtail; [8]): 9
Blackgrass plant response rating (blackgrass; [1]): 0
Blackgrass plant response rating (blackgrass; [2]): 0
Blackgrass plant response rating (blackgrass; [3]): 2
Blackgrass plant response rating (blackgrass; [4]): 0
Blackgrass plant response rating (blackgrass; [5]): 0
Blackgrass plant response rating (blackgrass; [6]): 0
Blackgrass plant response rating (blackgrass; [7]): 0
Blackgrass plant response rating (blackgrass; [8]): 2
Barnyardgrass plant response rating (bamyardgrass; [9]): 0
Barnyardgrass plant response rating (bamyardgrass; [10]): 6
Barnyardgrass plant response rating (bamyardgrass; [11]): 3
Barnyardgrass plant response rating (bamyardgrass; [12]): 4
Barnyardgrass plant response rating (bamyardgrass; [13]): 4
Barnyardgrass plant response rating (bamyardgrass; [14]): 5
